Data reported in patent US11992558B2, “Controlled release formulation comprising flavoxate” (priority 2018, dated 2024).
Like-named read-outs stand apart in the source and are kept apart here.

Columns and labels:
[1] = pH-dependent aqueous solubility at ambient temperature; format: physicochemical; conditions: 20 °C
Method: (§1) Solubility of flavoxate hydrochloride was determined in various aqueous buffers, water, ethanol, acetone and ethyl ether at 20° C. and at ambient temperature (20 to 25° C.).

[2] = Solubility of flavoxate in various solvents at 20° C.; format: physicochemical
Method: as §1

[3] = Flow properties of drug powder; format: physicochemical
Method: Tapped density • 2. Bulk density • 3. Compressibility Index and Hausner ratio • 4. Angle of repose Solubility: Flowability measures how uniformly the powder flows from the hopper into the tablet die and is an index of how well the tablet die will be filled to a constant volume. […] Similarly, the angle between the freestanding surface of a powder heap and horizontal plane is the angle of repose. […] flowability was less and could be improved with addition of lubricants during tablet-making. Results of tests to determine the Angle of repose (35°), Carr's index (33.3%), bulk density (0.236 gm/ml) and tapped density ([…]) indicate that the drug powder had poor flow properties.

[4] = cited from earlier work
[5] = Drug-excipient compatibility (Total RS); format: physicochemical
Method: Experiments were conducted to ascertain compatibility of the drug with commonly used excipients.

For `Cc1c(-c2ccccc2)oc2c(C(=O)OCCN3CCCCC3)cccc2c1=O.Cl` [flavoxate, 2-piperidinoethyl-3-methylflavone 8-carboxylate hydrochloride], the solubility ([1]; aqueous buffer, 0.05N Phosphate Buffer, pH 2.5, 20 to 25° C.) was 7640 µg/mL, the solubility ([1]; aqueous buffer, 0.05N Phosphate Buffer, pH 4.5, 20 to 25° C.) was 13700 µg/mL and the solubility ([1]; aqueous buffer, 0.05N Phosphate Buffer, pH 6.0, 20 to 25° C.) was 15400 µg/mL. For the same compound, the solubility ([1]; aqueous buffer, 0.05N Phosphate Buffer, pH 6.8, 20 to 25° C.) was 6170 µg/mL, the solubility ([1]; aqueous buffer, 0.05N Phosphate Buffer, pH 7.2, 20 to 25° C.) was 1040 µg/mL and the solubility ([1]; aqueous buffer, 0.05N Phosphate Buffer, pH 7.5, 20 to 25° C.) was 580 µg/mL. For the same compound, the solubility ([1]; simulated gastric fluid, 0.1N HCl, pH 1.2, 20 to 25° C.) was 570 µg/mL, the solubility ([1]; Water, pH 5.7, 20 to 25° C.) was 11300 µg/mL and the Solubility % w/v ([2]; Acetone) was “Insoluble”. The Solubility % w/v ([2]; Chloroform) was 2.50 % w/v, the Solubility % w/v ([2]; Ethanol) was 0.20 % w/v and the Solubility % w/v ([2]; Ethyl Ether) was “Insoluble”. The Solubility % w/v ([2]; Methanol) was 0.90 % w/v, the solubility ([2]; Water, read-out: Solubility % w/v) was 7500 µg/mL and the Angle of repose [3] was 35 °. For the same compound, the “Carr's index” value [3] was 33.3%, the bulk density [3] was 0.236 gm/ml and the tapped density [3] was 0.355 g/mL. For the same compound, the “duration of therapeutic activity” value ([4]; in vivo) was 5 to 6 h, the “free flavoxate in urine” value ([4]; in vivo) was “No free flavoxate was found” and the “time of peak level of MFCA” value ([4]; oral 400 mg dose) was “around two hours”. The “time of peak level of MFCA” value ([4]; oral administration of 200 mg dose) was 30 to 60 min, the “dose excreted as MFCA within 12 hours” value ([4]; oral, within 12 hours) was “About 50%” and the “dose excreted as MFCA” value ([4]; urine, 24 hours, intravenous) was 47%. The “Total R.S. (%) 30 D/40° C./75% RH*” value ([5]; 30 days at 40° C. and 75% relative humidity) was 0.04% and the “Total R.S. (%) Initial” value ([5]; initial) was 0.02%.

In the case of `Cc1c(-c2ccccc2)oc2c(C(=O)O)cccc2c1=O` [MFCA, 3-methylflavone-8-carboxylic acid], the “half-life t½” value ([4]; MFCA) is listed as 3.5 h.
